This is an account of results in patent publication US9227971B2, “Pyrazolo[1,5-a]pyrimidine compounds as mTOR inhibitors” (Merck Sharp & Dohme Corp., priority 2010, dated 2016).

Like-named read-outs stand apart in the source and are kept apart here.

Assay [1] has as its system phosphorylated AKT Ser473 (pAKT S473), mTORC2 activity, PC3 cells. As to the kind of experiment: mTOR target engagement assay, immunofluorescent cell-based, pAKT S473 readout (mTORC2 activity). The procedure, abridged:
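After blocking, cells were stained overnight at 4 °C with anti-pAKT S473 antibody, then a fluorescent secondary; inhibition was read as reduced fluorescence intensity.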

For assay [2], the system named is phosphorylated 4E-BP1 Thr37/46 (p4E-BP1 Thr37/46), mTORC1 activity, PC3 cells. As to the kind of experiment: mTOR target engagement assay, immunofluorescent cell-based, p4E-BP1 Thr37/46 readout (mTORC1 activity). The following applies: read-out: p4E-BP1 Thr37/46 IC50. The procedure, abridged: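 Seed PC3 cells overnight; treat with compound dilutions for ninety minutes at 37° C; fix with glyoxal and block; stain with anti-p4E-BP1 Thr37/46 overnight at 4° C, then fluorescent secondary; read fluorescence and fit IC50 against DMSO-only controls.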

Setting [3] is: Homo sapiens, PC-3, Table 3-1, PC3 cells.
The mark [4] stands for this setting: Homo sapiens, PC-3, Table 6-1, PC3 cells.
Where [5] appears, read: Homo sapiens, PC-3, PC3 cells, compound treatment ninety minutes at 37° C.
Setting [6] is: Homo sapiens, PC-3, Table 7-8, PC3 cells.
Where [7] appears, read: PC3 cells, compound treatment ninety minutes at 37° C.

Turning to `CS(=O)(=O)c1c([C@@H]2C[C@H]3CC[C@@H](C2)N3C(=O)c2nnc(O)[nH]2)nc2c(-c3ccc(-c4ccccc4)nc3)cnn2c1N` [Compound 3.29, ((1R,3s,5S)-3-(7-amino-6-(methylsulfonyl)-3-(6-phenylpyridin-3-yl)pyrazolo[1,5-a]pyrimidin-5-yl)-8-azabicyclo[3.2.1]octan-8-yl)(5-hydroxy-4H-1,2,4-triazol-3-yl)methanone], the IC50 in assay [1] (setting [3]) and in assay [2] (setting [3]) was 100 to 1000 nM in each case.
On to `CC(=O)c1c([C@@H]2C[C@H]3CC[C@@H](C2)N3C(=O)CO)nc2c(-c3ccc(-c4ncc(C)[nH]4)c(F)c3)cnn2c1N` [Compound 6.38, 1-((1R,3s,5S)-3-(6-acetyl-7-amino-3-(3-fluoro-4-(5-methyl-1H-imidazol-2-yl)phenyl)pyrazolo[1,5-a]pyrimidin-5-yl)-8-azabicyclo[3.2.1]octan-8-yl)-2-hydroxyethanone], for which the figures for the IC50 in assay [1] (setting [4]) and in assay [2] (setting [4]) were 1 to 100 nM and 100 to 1000 nM, respectively.
Turning to `CS(=O)(=O)c1c([C@@H]2C[C@H]3CC[C@@H](C2)N3C(=O)c2nnc[nH]2)nc2c(-c3ccc(-c4ccncc4)nc3)cnn2c1N` [Compound 3.64, ((1R,3s,5S)-3-(3-(2,4′-bipyridin-5-yl)-7-amino-6-(methylsulfonyl)pyrazolo[1,5-a]pyrimidin-5-yl)-8-azabicyclo[3.2.1]octan-8-yl)(4H-1,2,4-triazol-3-yl)methanone], the IC50 was 1000 to 10000 nM in assay [1] (Table 3-1, PC3 cells) and 1000 to 10000 nM in assay [2] (Table 3-1, PC3 cells).
`CC(=O)c1c([C@@H]2C[C@H]3CC[C@@H](C2)N3C(=O)c2nnc[nH]2)nc2c(-c3ccc(-c4cc[nH]n4)nc3)cnn2c1N` [Compound 1.1.74, 1-(3-(6-(1H-pyrazol-3-yl)pyridin-3-yl)-5-((1R,3s,5S)-8-(4H-1,2,4-triazole-3-carbonyl)-8-azabicyclo[3.2.1]octan-3-yl)-7-aminopyrazolo[1,5-a]pyrimidin-6-yl)ethanone]: the IC50 in assay [1] (setting [5]) and in assay [2] (setting [5]) was 1 to 100 nM each time.
`CS(=O)(=O)c1c([C@@H]2C[C@H]3CC[C@@H](C2)N3C(=O)c2nnc[nH]2)nc2c(-c3cnc(-c4ccccc4)c(O)c3)cnn2c1N` [Compound 3.22, ((1R,3s,5S)-3-(7-amino-3-(5-hydroxy-6-phenylpyridin-3-yl)-6-(methylsulfonyl)pyrazolo[1,5-a]pyrimidin-5-yl)-8-azabicyclo[3.2.1]octan-8-yl)(4H-1,2,4-triazol-3-yl)methanone]: the IC50 in assay [1] (setting [3]) is 100 to 1000 nM; in assay [2] (setting [3]), 1000 to 10000 nM.
On the same counts, the results for `CS(=O)(=O)c1c([C@@H]2C[C@H]3CC[C@@H](C2)N3C(=O)c2cc(N)n[nH]2)nc2c(-c3ccc(-c4ccccc4)nc3)cnn2c1N` [Compound 3.75, (3-amino-1H-pyrazol-5-yl)((1R,3s,5S)-3-(7-amino-6-(methylsulfonyl)-3-(6-phenylpyridin-3-yl)pyrazolo[1,5-a]pyrimidin-5-yl)-8-azabicyclo[3.2.1]octan-8-yl)methanone] are 1 to 100 nM and 1 to 100 nM.
For the molecule `CS(=O)(=O)c1c([C@@H]2C[C@H]3CC[C@@H](C2)N3C(=O)c2cn[nH]c2N)nc2c(-c3ccc(-c4ccccc4)nc3)cnn2c1N` [Compound 3.90, (5-amino-1H-pyrazol-4-yl)((1R,3s,5S)-3-(7-amino-6-(methylsulfonyl)-3-(6-phenylpyridin-3-yl)pyrazolo[1,5-a]pyrimidin-5-yl)-8-azabicyclo[3.2.1]octan-8-yl)methanone], the IC50 in assay [1] (setting [3]) and in assay [2] (setting [3]) was 1 to 100 nM in each case.
As to `CC(C)(O)c1ccc(-c2cnn3c(N)c(C4CC4)c([C@@H]4C[C@H]5CC[C@@H](C4)N5C(=O)c4nnc[nH]4)nc23)cn1` [Compound 7.39, ((1R,3s,5S)-3-(7-amino-6-cyclopropyl-3-(6-(2-hydroxypropan-2-yl)pyridin-3-yl)pyrazolo[1,5-a]pyrimidin-5-yl)-8-azabicyclo[3.2.1]octan-8-yl)(4H-1,2,4-triazol-3-yl)methanone], the IC50 in assay [1] (setting [6]) and in assay [2] (setting [6]) was 1 to 100 nM throughout.
Turning to `CC(=O)c1c(N2C3CCC2CN(C(=O)c2nnc[nH]2)C3)nc2c(-c3ccc(-c4ccccc4)nc3)cnn2c1N` [Compound 8.5, 1-(5-(3-(4H-1,2,4-triazole-3-carbonyl)-3,8-diazabicyclo[3.2.1]octan-8-yl)-7-amino-3-(6-phenylpyridin-3-yl)pyrazolo[1,5-a]pyrimidin-6-yl)ethanone], the IC50 in assay [1] (Homo sapiens, PC-3, PC3 cells) was in the range of 100 to 1000 nM; in assay [2] (Homo sapiens, PC-3, PC3 cells) it was 1000 to 10000 nM.
With `CC(=O)c1c([C@@H]2C[C@H]3CC[C@@H](C2)N3C(=O)C2CCS(=O)(=O)N2)nc2c(-c3ccc(-c4ccccc4)nc3)cnn2c1N` (mixture of isomers) [Compound 1.1.4, (EXO)-3-[6-ACETYL-7-AMINO-3-(6-PHENYL-3-PYRIDINYL)PYRAZOLO[1,5-a]PYRIMIDIN-5-YL]-8-[(1,1-DIOXIDO-3-ISOTHIAZOLIDINYL)CARBONYL]-8-AZABICYCLO[3.2.1]OCTANE (MIX. OF 2 DIASTEREOMERS)], the IC50 in assay [1] (setting [5]) and in assay [2] (setting [5]) was 100 to 1000 nM each time.
For `CC(=O)c1c([C@@H]2C[C@H]3CC[C@@H](C2)N3C(=O)c2ncn[nH]2)nc2c(-c3cnc(C(C)(C)O)c(F)c3)cnn2c1N` [Compound 7.98, 1-(5-((1R,3s,5S)-8-(1H-1,2,4-triazole-5-carbonyl)-8-azabicyclo[3.2.1]octan-3-yl)-7-amino-3-(5-fluoro-6-(2-hydroxypropan-2-yl)pyridin-3-yl)pyrazolo[1,5-a]pyrimidin-6-yl)ethanone], the IC50 fell in the range of 1 to 100 nM in assay [1] (Homo sapiens, PC-3, PC3 cells) and 1 to 100 nM in assay [2] (Homo sapiens, PC-3, PC3 cells).
As for `CC(=O)c1c([C@@H]2C[C@H]3CC[C@@H](C2)N3C(=O)CO)nc2c(-c3ccc(C(O)C(F)(F)F)nc3)cnn2c1N` (stereo partly drawn) [Compound 7.67, 1-((1R,3s,5S)-3-(6-acetyl-7-amino-3-(6-(2,2,2-trifluoro-1-hydroxyethyl)pyridin-3-yl)pyrazolo[1,5-a]pyrimidin-5-yl)-8-azabicyclo[3.2.1]octan-8-yl)-2-hydroxyethanone], the IC50 in assay [1] (Homo sapiens, PC-3, PC3 cells) lay in the range of 1000 to 10000 nM; in assay [2] (Homo sapiens, PC-3, PC3 cells), 100 to 1000 nM.
Take `CS(=O)(=O)c1c(C2CC3CCC(C2)N3C(=O)c2nnc[nH]2)nc2c(-c3ccc(-c4ccccc4)[n+]([O-])c3)cnn2c1N` [Compound 3.6, 5-(5-((1R,3s,5S)-8-(1H-1,2,4-triazole-3-carbonyl)-8-azabicyclo[3.2.1]octan-3-yl)-7-amino-6-(methylsulfonyl)pyrazolo[1,5-a]pyrimidin-3-yl)-2-phenylpyridine 1-oxide]: the IC50 in assay [1] (setting [3]) and in assay [2] (setting [3]) was 100 to 1000 nM throughout.
Consider “1-((1R,3s,5S)-3-(6-acetyl-7-amino-3-(6-(fluoromethyl)pyridin-3-yl)pyrazolo[1,5-a]pyrimidin-5-yl)-8-azabicyclo[3.2.1]octan-8-yl)-2-hydroxyethanone [Compound 1.1.92]”, for which the IC50 in assay [1] (setting [7]) and in assay [2] (setting [7]) was 1 to 100 nM each time.
On to `CS(=O)(=O)c1c([C@H]2CC3CC[C@H](C2)N3C(=O)c2cc[nH]n2)nc2c(-c3ccc(C(O)C(F)(F)F)nc3)cnn2c1N` (stereo partly drawn) [Compound 7.69, ((1R,3s,5S)-3-(7-amino-6-(methylsulfonyl)-3-(6-(2,2,2-trifluoro-1-hydroxyethyl)pyridin-3-yl)pyrazolo[1,5-a]pyrimidin-5-yl)-8-azabicyclo[3.2.1]octan-8-yl)(1H-pyrazol-3-yl)methanone], for which the IC50 was 1000 to 10000 nM in assay [1] (Homo sapiens, PC-3, PC3 cells) and 1000 to 10000 nM in assay [2] (Homo sapiens, PC-3, PC3 cells).
As for `CS(=O)(=O)c1c([C@H]2CC3CC[C@H](C2)N3C(=O)c2cn[nH]n2)nc2c(-c3cnn(-c4ccccc4)c3)cnn2c1N` [Compound 3.176, ((1R,3s,5S)-3-(7-amino-6-(methylsulfonyl)-3-(1-phenyl-1H-pyrazol-4-yl)pyrazolo[1,5-a]pyrimidin-5-yl)-8-azabicyclo[3.2.1]octan-8-yl)(2H-1,2,3-triazol-4-yl)methanone], the IC50 in assay [1] (setting [3]) and in assay [2] (setting [3]) was 100 to 1000 nM throughout.
With `N#Cc1ncc(-c2cnn3c(N)cc([C@@H]4C[C@H]5CC[C@@H](C4)N5C(=O)c4nnc[nH]4)nc23)cn1` [Compound 8.95, 5-(5-((1R,3s,5S)-8-(4H-1,2,4-triazole-3-carbonyl)-8-azabicyclo[3.2.1]octan-3-yl)-7-aminopyrazolo[1,5-a]pyrimidin-3-yl)pyrimidine-2-carbonitrile], the IC50 in assay [1] (Homo sapiens, PC-3, PC3 cells) is above 10000 nM; in assay [2] (Homo sapiens, PC-3, PC3 cells), above 10000 nM.
As to `CC(=O)c1c([C@@H]2C[C@H]3CC[C@@H](C2)N3C(=O)c2nnc(N)[nH]2)nc2c(-c3ccc(C(N)(C(F)(F)F)C(F)(F)F)nc3)cnn2c1N` [Compound 7.83], the IC50 is 1000 to 10000 nM in assay [1] (Homo sapiens, PC-3, PC3 cells) and 100 to 1000 nM in assay [2] (Homo sapiens, PC-3, PC3 cells).
For the molecule `CC(=O)c1c([C@@H]2C[C@H]3CC[C@@H](C2)N3C(=O)C(N)=O)nc2c(-c3ccc(-c4ccccc4)nc3)cnn2c1N` [Compound 1.1.118, 2-((1R,3s,5S)-3-(6-acetyl-7-amino-3-(6-phenylpyridin-3-yl)pyrazolo[1,5-a]pyrimidin-5-yl)-8-azabicyclo[3.2.1]octan-8-yl)-2-oxoacetamide], the IC50 in assay [1] (setting [5]) and in assay [2] (setting [5]) was 100 to 1000 nM each time.
